{"source": "patent US7083933B1", "about": "“Methods for identification of modulators of OSGPR116 activity” (Prosidion Limited, priority 2003, dated 2006)", "key": {"OSGPR116 [1]": {"target": "T1, OSGPR116 (Homo sapiens, UniProt Q8TDV5)", "T1 sequence (Q8TDV5 1-335)": "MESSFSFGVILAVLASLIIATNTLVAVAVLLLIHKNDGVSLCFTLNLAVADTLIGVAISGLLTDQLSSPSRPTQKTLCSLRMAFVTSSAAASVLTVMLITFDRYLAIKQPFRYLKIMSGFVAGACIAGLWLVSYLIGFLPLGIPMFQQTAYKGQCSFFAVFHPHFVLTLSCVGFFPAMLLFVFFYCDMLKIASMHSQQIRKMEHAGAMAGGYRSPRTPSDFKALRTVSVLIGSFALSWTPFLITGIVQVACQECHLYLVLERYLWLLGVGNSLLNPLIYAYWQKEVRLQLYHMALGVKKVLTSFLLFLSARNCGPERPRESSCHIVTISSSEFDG", "test": "Cre-SEAP assay in HEK-293-Galpha16 cells transfected with OSGPR116 or empty vector", "format": "cell-based", "design": "expressed in transfected cells; host or cells: HEK-293-Galpha16 cells stably expressing cre-SEAP, transient transfection with lipofectamine", "details": "OSGPR116 and empty vector transfected cells, 7h, FIG. 12", "procedure": "HEK-293—Galpha16 cells stably expressing the cre-SEAP (secreted alkaline phosphatase) reporter construct, and transiently transfected with either the OSGPR116 vector or empty vector control, were grown to between ˜0.5×10^6 and 1×10^7 cells/dish and seeded at 4×10^4 cells/well on poly-D-lysine coated clear-bottom 96-well tissue culture plates. The cells were left to adhere to the plates in media for 24h at 37° C. The media was aspirated and the cells arrested by serum starvation for a further 24h in 200 ul of colorless DMEM.\nAfter serum arrest, the starvation media was aspirated and 90 ul fresh colorless DMEM containing 0.1% BSA was added. 10 ul of 10× compound (or DMSO/H20 control) was added and the plates incubated at 37° C. for 7h. Conditioned media (12.5 ul) was then transferred to a 96 well white flat-bottom plate. Next, 37.5 μl of 1× Tropix Dilution Buffer was added to the transferred culture media. 50 μl of Tropix Assay Buffer was also added. The plate was then incubated at room temperature for 5 minutes. Finally, 50 μl Tropix Reaction Buffer Diluent containing a 1:20 dilution of the CSPD Chemiluminescent Substrate was added. The plate was incubated at room temperature for 60 minutes and luminescence measured."}, "OSGPR116 [2]": {"target": "T1, OSGPR116", "design": "expressed in transfected cells; host or cells: yeast strains 13397, 13393, 15070, 18043, 20202, 10151 with different G-alpha chimeras", "details": "as described in earlier U.S. patents; cited from earlier work"}, "OSGPR116 [3]": {"target": "T1, OSGPR116", "test": "Yeast cell-based Fus1p-LacZ reporter assay, human OSGPR116", "design": "expressed in transfected cells; host or cells: engineered yeast (GPA1 and Ste3 deleted, G-alpha chimera, Fus1p-LacZ reporters)", "details": "human isoform, FIG. 9a; Galpha-q5 yeast, 4h incubation", "text": "(§1) The yeast cell-based reporter assays have previously been described in the literature (e.g. see Miret J. J., et. al. (2002) J. Biol. Chem. 277:6881–6887; Campbell R. M., et. al. (1999) Bioorg Med. Chem. Lett. 9:2413–2418; King K., et. al. (1990) Science. 250:121–123); WO 99/14344; WO 00/12704; and U.S. Pat. No. 6,100,042). Briefly, yeast cells have been engineered such that the endogenous yeast G-alpha (GPA1) has been deleted and replaced with G-protein chimeras constructed using multiple techniques. Additionally the endogenous yeast alpha-cell GPCR, Ste3 has been deleted to allow for a […] expression of a mammalian GPCR of choice. In the yeast, elements of the pheromone signaling transduction pathway, which are conserved in eukaryotic cells (for example, the mitogen-activated protein kinase pathway), drive the expression of Fus1. By placing β-galactosidase (LacZ) under the control of the Fus1 promoter (Fus1p), a system has been developed whereby receptor activation leads to an enzymatic read-out. Different yeast strains (e.g. FIG. 10) denote the presence of different G-alpha chimeras (see “yeast reporter assays” in Results section below for definitions).\n(§2) Yeast cells are transformed by an adaptation of the Lithium acetate method described by Agatep et.al. (Agatep, R., et. al. (1998) Transformation of Saccharomyces cerevisiae by the lithium acetate/single-stranded carrier DNA/polyethylene glycol (LiAc/ss-DNA/PEG) protocol. Technical Tips Online, Trends Journals, Elsevier). Briefly, yeast cells are grown overnight on yeast tryptone plates (YT). Carrier single-stranded DNA (10 μg), 2 μg of each of two Fus1p-LacZ reporter plasmids (one with URA selection marker and one with TRP), 2 μg of OSGPR116 in yeast expression vector (2μ origin of replication) and a lithium acetate/polyethylene glycol/TE buffer is pipetted into an Epindorf tube. The yeast expression plasmid containing the receptor/no receptor control has a LEU marker. Yeast cells are inoculated into this mixture and the reaction proceeds at 30° C. for 60 minutes. The yeast cells are then heat-shocked at 42° C. for 15 minutes. The cells are then washed and spread on selection plates. The selection plates are synthetic defined yeast media minus LEU, URA and TRP (SD-LUT). After incubating at 30° C. for 2–3 days, colonies that grow on the selection plates are then tested in the LacZ assay.\n(§3) In order to perform fluorometric enzyme assays for β-galactosidase, yeast cells were grown overnight in liquid SD-LUT media to an unsaturated concentration (i.e. the cells are still dividing and have not yet reached stationary phase). They are diluted in fresh media to an optimal assay concentration and 90 μL of yeast cells were added to 96-well black polystyrene plates (Costar). Compounds, dissolved in ethanol and diluted in a 1% BSA solution to 10× concentration, were added to the plates and the yeast are placed at 30° C. for 4h. After 4h, the substrate for the β-galactosidase is added to each well. The substrate may yield a fluorescent or calorimetric read-out upon the activity of the β-galactosidase. In these experiments, Fluorescein di (β-D-galactopyranoside) was used (FDG), a substrate for the enzyme that releases fluorescein, allowing a fluorometric read-out. 20 μL of 500 uM FDG was used. After incubation of the cells with the substrate for 30–60 mins, 20 μL of 1M sodium carbonate is added to terminate the reaction and enhance the fluorescent signal. The plates were then read in a fluorometer at 485/535 nm. As an alternate read-out system, the yeast are also engineered with a Fus1p-HIS gene which means that activation of the receptor can also be measured through the growth of the yeast in a […] deficient media."}, "[4]": {"target": "T2, mouse homolog of OSGPR116 (Mus musculus, UniProt Q7TQP3)", "T2 construct": "expressed in transfected cells; host or cells: engineered yeast (GPA1 and Ste3 deleted, G-alpha chimera, Fus1p-LacZ reporters)", "T2 sequence (Q7TQP3 1-335)": "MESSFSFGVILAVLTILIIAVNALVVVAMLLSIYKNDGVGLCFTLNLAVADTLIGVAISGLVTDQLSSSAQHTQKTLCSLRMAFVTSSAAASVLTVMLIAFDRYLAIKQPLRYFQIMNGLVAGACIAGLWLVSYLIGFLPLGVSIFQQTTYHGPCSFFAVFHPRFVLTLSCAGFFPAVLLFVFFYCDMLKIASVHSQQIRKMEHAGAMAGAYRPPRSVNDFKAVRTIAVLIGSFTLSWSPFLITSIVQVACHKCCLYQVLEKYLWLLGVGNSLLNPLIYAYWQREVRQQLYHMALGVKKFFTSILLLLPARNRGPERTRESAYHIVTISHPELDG", "test": "Yeast cell-based Fus1p-LacZ reporter assay, mouse OSGPR116", "details": "mouse isoform, FIG. 9b; Galpha-q5 yeast, 4h incubation", "text": "as §1, §2, §3"}, "[5]": {"system": "vector transformed yeast cells", "test": "Yeast reporter assay, vector transformed (no receptor) control yeast", "format": "cell-based", "details": "yeast without OSGPR116 expression, FIGS. 9a, 9b", "text": "as §1, §2, §3"}}}
{"smiles": "Nc1ncnc2c1ncn2[C@@H]1O[C@H](COP(=O)(O)OP(=O)(O)OP(=O)(O)O)[C@@H](O)[C@H]1O", "note": "[ATP]", "values": [{"measurement": "luminescence (cre-SEAP, cAMP response element driven secreted alkaline phosphatase)", "setting": "OSGPR116 [1]", "result": "no effect"}]}
{"smiles": "CC1=C(/C=C/C(C)=C/C=C/C(C)=C/C(=O)O)C(C)(C)CCC1", "note": "[ATRA, all-trans-retinoic acid]", "values": [{"measurement": "production of cyclic AMP in host cells expressing recombinant receptor", "setting": "OSGPR116 [2]", "result": "stimulate the production of cyclic AMP"}, {"measurement": "effect on fluorescence (β-galactosidase activity) in yeast transformed with OSGPR116 receptor", "setting": "OSGPR116 [3]", "result": "no effect"}, {"measurement": "luminescence (cre-SEAP, cAMP response element driven secreted alkaline phosphatase)", "setting": "OSGPR116 [1]", "result": "no effect"}, {"measurement": "luminescence (cre-SEAP, cAMP response element driven secreted alkaline phosphatase)", "setting": "OSGPR116 [1]; listed as all-trans retinoic acid (ATRA)", "result": "Lack of effect"}]}
{"smiles": "CCCCCCC(C)(C)c1ccc([C@@H]2C[C@H](O)CC[C@H]2CCCO)c(O)c1", "note": "[CP55940]", "values": [{"measurement": "effect on fluorescence (β-galactosidase activity) in yeast transformed with OSGPR116 receptor", "setting": "OSGPR116 [3]", "result": "no effect"}]}
{"smiles": "CCCC(C)(C)c1ccc2c(c1)OC(C)(C)[C@@H]1CC=C(C)C[C@@H]21", "note": "[JWH-133]", "values": [{"measurement": "effect on fluorescence (β-galactosidase activity) in yeast transformed with OSGPR116 receptor", "setting": "OSGPR116 [3]", "result": "no effect"}]}
{"smiles": "CCNC(=O)[C@H]1O[C@@H](n2cnc3c(N)ncnc32)[C@H](O)[C@@H]1O", "note": "[NECA]", "values": [{"measurement": "luminescence (cre-SEAP, cAMP response element driven secreted alkaline phosphatase)", "setting": "OSGPR116 [1]", "result": "clear increase"}]}
{"smiles": "Cc1c(C(=O)c2cccc3ccccc23)c2cccc3c2n1[C@H](CN1CCOCC1)CO3", "note": "[WIN55212-2]", "values": [{"measurement": "effect on fluorescence (β-galactosidase activity) in yeast transformed with OSGPR116 receptor", "setting": "OSGPR116 [3]", "result": "no effect"}]}
{"smiles": "CCCCC/C=C\\C/C=C\\C/C=C\\C/C=C\\CCCC(=O)NCCO", "note": "[anandamide]", "values": [{"measurement": "effect on fluorescence (β-galactosidase activity) in yeast transformed with OSGPR116 receptor", "setting": "[4]", "result": "increase in fluorescence"}, {"measurement": "effect on fluorescence (β-galactosidase activity) in yeast transformed with OSGPR116 receptor", "setting": "OSGPR116 [3]", "result": "increase in fluorescence"}, {"measurement": "increase in fluorescence in vector transformed cells", "setting": "[5]", "result": "not"}]}
{"smiles": "CC/C=C\\C/C=C\\C/C=C\\C/C=C\\C/C=C\\C/C=C\\CCC(=O)NCCO", "note": "[docosahexaenoic acid ethanolamide]", "values": [{"measurement": "effect on fluorescence (β-galactosidase activity) in yeast transformed with OSGPR116 receptor", "setting": "OSGPR116 [3]", "result": "no effect"}]}
{"smiles": "CC/C=C\\C/C=C\\C/C=C\\CCCCCCCC(=O)NCCO", "note": "[linolenoyl ethanolamide]", "values": [{"measurement": "effect on fluorescence (β-galactosidase activity) in yeast transformed with OSGPR116 receptor", "setting": "[4]", "result": "increase in fluorescence"}, {"measurement": "effect on fluorescence (β-galactosidase activity) in yeast transformed with OSGPR116 receptor", "setting": "OSGPR116 [3]", "result": "increase in fluorescence"}, {"measurement": "increase in fluorescence in vector transformed cells", "setting": "[5]", "result": "not"}]}
{"smiles": "CCCCC/C=C\\C/C=C\\C/C=C\\C/C=C\\CCCC(=O)N[C@H](C)CO", "note": "[methanandamide]", "values": [{"measurement": "effect on fluorescence (β-galactosidase activity) in yeast transformed with OSGPR116 receptor", "setting": "OSGPR116 [3]", "result": "no effect"}]}
{"smiles": "CCCCCCCC/C=C\\CCCCCCCC(N)=O", "note": "[oleamide]", "values": [{"measurement": "effect on fluorescence (β-galactosidase activity) in yeast transformed with OSGPR116 receptor", "setting": "[4]", "result": "increase in fluorescence"}, {"measurement": "effect on fluorescence (β-galactosidase activity) in yeast transformed with OSGPR116 receptor", "setting": "OSGPR116 [3]", "result": "increase in fluorescence"}, {"measurement": "increase in fluorescence in vector transformed cells", "setting": "[5]", "result": "not"}]}
{"smiles": "CCCCCCCCCCCCCCCC(=O)NCCO", "note": "[palmitoyl ethanolamide]", "values": [{"measurement": "effect on fluorescence (β-galactosidase activity) in yeast transformed with OSGPR116 receptor", "setting": "[4]", "result": "increase in fluorescence"}, {"measurement": "effect on fluorescence (β-galactosidase activity) in yeast transformed with OSGPR116 receptor", "setting": "OSGPR116 [3]", "result": "increase in fluorescence"}, {"measurement": "increase in fluorescence in vector transformed cells", "setting": "[5]", "result": "not"}]}
{"smiles": "CCCCCCCCCCCCCCCCCC(=O)NCCO", "note": "[stearoyl ethanolamide]", "values": [{"measurement": "effect on fluorescence (β-galactosidase activity) in yeast transformed with OSGPR116 receptor", "setting": "[4]", "result": "increase in fluorescence"}, {"measurement": "effect on fluorescence (β-galactosidase activity) in yeast transformed with OSGPR116 receptor", "setting": "OSGPR116 [3]", "result": "increase in fluorescence"}, {"measurement": "increase in fluorescence in vector transformed cells", "setting": "[5]", "result": "not"}]}
